Laboratory results taken from ChEMBL document CHEMBL3112492, “Antiprotozoan lead discovery by aligning dry and wet screening: prediction, synthesis, and biological assay of novel quinoxalinones” (Bioorg Med Chem, 2014).
Converted amounts (≈) assume the structure as drawn. The source made the active and inactive calls. The calls are words filed in the database; no cut-off is given here.

tested on: Leishmania braziliensis; assay: Antiprotozoal activity against metacyclic promastigote stage of Leishmania braziliensis MHOM/PE/95/LQ2 assessed as growth inhibition after 72 hrs by Alamar Blue assay; format: functional, organism-based; conditions: not given

| Structure (SMILES) | growth inhibition (GI) |
| --- | --- |
| Br.CN1C(=O)CN(CCCCCN2CCCCC2)c2ccc([N+](=O)[O-])cc21 | Dose-dependent effect |

same assay, conditions: MHOM/PE/95/LQ2, 72 h

| Structure (SMILES) | IC50 [µg/mL] |
| --- | --- |
| Br.CN1C(=O)CN(CCCCCN2CCCCC2)c2ccc([N+](=O)[O-])cc21 | 9.57 |

tested on: Trichomonas vaginalis; assay: Trichomonastatic activity against Trichomonas vaginalis JH31A at 1 ug/ml after 48 hrs by Neubauer chamber analysis relative to control; format: functional; conditions: not given

| Structure (SMILES) | Activity [%] |
| --- | --- |
| Br.CN1C(=O)CN(CCCCCN2CCCCC2)c2ccc([N+](=O)[O-])cc21 | 0 |

tested on: Trichomonas vaginalis; assay: Trichomonacidal activity against Trichomonas vaginalis JH31A at 1 ug/ml after 48 hrs by Neubauer chamber analysis relative to control; format: functional; conditions: not given

| Structure (SMILES) | Activity [%] |
| --- | --- |
| Cc1ncc([N+](=O)[O-])n1CCO [METRONIDAZOLE] | 100 |

tested on: Trichomonas vaginalis; assay: Trichomonastatic activity against Trichomonas vaginalis JH31A at 1 ug/ml after 24 hrs by Neubauer chamber analysis relative to control; format: functional; conditions: not given

| Structure (SMILES) | Activity [%] |
| --- | --- |
| Br.CN1C(=O)CN(CCCCCN2CCCCC2)c2ccc([N+](=O)[O-])cc21 | 0 |

tested on: Trichomonas vaginalis; assay: Trichomonacidal activity against Trichomonas vaginalis JH31A at 0.5 ug/ml after 24 hrs by Neubauer chamber analysis relative to control; format: functional; conditions: not given

| Structure (SMILES) | Activity [%] |
| --- | --- |
| Cc1ncc([N+](=O)[O-])n1CCO [METRONIDAZOLE] | 98 |

tested on: Trichomonas vaginalis; assay: Trichomonacidal activity against Trichomonas vaginalis JH31A at 0.5 ug/ml after 48 hrs by Neubauer chamber analysis relative to control; format: functional; conditions: not given

| Structure (SMILES) | Activity [%] |
| --- | --- |
| Cc1ncc([N+](=O)[O-])n1CCO [METRONIDAZOLE] | 99.5 |

tested on: Toxoplasma gondii; assay: Antiprotozoal activity against tachyzoite stage of Toxoplasma gondii RH assessed as viability at 200 uM after 4 hrs by trypan blue exclusion assay relative to control; format: functional; conditions: not given

| Structure (SMILES) | Activity [%] |
| --- | --- |
| Br.CN1C(=O)CN(CCCCCN2CCCCC2)c2ccc([N+](=O)[O-])cc21 | 90 |

tested on: Trichomonas vaginalis; assay: Trichomonacidal activity against Trichomonas vaginalis JH31A at 2 ug/ml after 24 hrs by Neubauer chamber analysis relative to control; format: functional; conditions: not given

| Structure (SMILES) | Activity [%] |
| --- | --- |
| Cc1ncc([N+](=O)[O-])n1CCO [METRONIDAZOLE] | 100 |

tested on: Toxoplasma gondii; assay: Antiprotozoal activity against tachyzoite stage of Toxoplasma gondii RH assessed as viability at 500 uM after 4 hrs by trypan blue exclusion assay relative to control; format: functional; conditions: not given

| Structure (SMILES) | Activity [%] |
| --- | --- |
| Br.CN1C(=O)CN(CCCCCN2CCCCC2)c2ccc([N+](=O)[O-])cc21 | 40 |

tested on: J774; assay: Cytotoxicity against mouse J774 cells at 1 ug/mL after 24 hrs by MTT assay; format: cell-based; conditions: j774, 24 h

| Structure (SMILES) | Activity [%] |
| --- | --- |
| CC1CS(=O)(=O)CCN1/N=C/c1ccc([N+](=O)[O-])o1 (stereo not drawn) [NIFURTIMOX] | 0 |

tested on: J774; assay: Cytotoxicity against mouse J774 cells at 10 ug/mL after 24 hrs by MTT assay; format: cell-based; conditions: j774, 24 h

| Structure (SMILES) | Activity [%] |
| --- | --- |
| Br.CN1C(=O)CN(CCCCCN2CCCCC2)c2ccc([N+](=O)[O-])cc21 | 11.57 |
| CC1CS(=O)(=O)CCN1/N=C/c1ccc([N+](=O)[O-])o1 (stereo not drawn) [NIFURTIMOX] | 0.6 |

tested on: Plasmodium falciparum; assay: Antimalarial activity against intraerythrocytic asexual stage of Plasmodium falciparum 3D7 assessed as inhibition of [G-3H]-hypoxanthine uptake by semiautomated microdilution method; format: functional, organism-based; conditions: not given

| Structure (SMILES) | IC50 [µg/mL] |
| --- | --- |
| Br.CN1C(=O)CN(CCCCCN2CCCCC2)c2ccc([N+](=O)[O-])cc21 | > 10 |

tested on: Trichomonas vaginalis; assay: Trichomonastatic activity against Trichomonas vaginalis JH31A at 10 ug/ml after 48 hrs by Neubauer chamber analysis relative to control; format: functional; conditions: not given

| Structure (SMILES) | Activity [%] |
| --- | --- |
| Br.CN1C(=O)CN(CCCCCN2CCCCC2)c2ccc([N+](=O)[O-])cc21 | 86.52 |

tested on: Trichomonas vaginalis; assay: Trichomonacidal activity against Trichomonas vaginalis JH31A at 1 ug/ml after 24 hrs by Neubauer chamber analysis relative to control; format: functional; conditions: not given

| Structure (SMILES) | Activity [%] |
| --- | --- |
| Cc1ncc([N+](=O)[O-])n1CCO [METRONIDAZOLE] | 99.1 |

tested on: Acanthamoeba castellanii; assay: Antiprotozoal activity against trophozoite stage of Acanthamoeba castellanii Neff ATCC 30010 after 72 to 120 hrs by Alamar Blue assay; format: functional; conditions: Acanthamoeba castellanii str. Neff

| Structure (SMILES) | Activity |
| --- | --- |
| Br.CN1C(=O)CN(CCCCCN2CCCCC2)c2ccc([N+](=O)[O-])cc21 | inactive |

tested on: not listed separately; assay: Inhibition of ferriprotoporphyrin-9 biocrystallization by micro-ELISA; conditions: not given

| Structure (SMILES) | IC50 [µg/mL] |
| --- | --- |
| CCN(CC)CCCC(C)Nc1ccnc2cc(Cl)ccc12 (stereo not drawn) [CHLOROQUINE] | 40 (≈ 125 µM) |
| Br.CN1C(=O)CN(CCCCCN2CCCCC2)c2ccc([N+](=O)[O-])cc21 | > 2000 |

tested on: Trypanosoma cruzi; assay: Trypanocidal activity against epimastigote stage of Trypanosoma cruzi CL Brener at 100 ug/mL after 72 hrs by beta-galactosidase reporter gene assay relative to control; format: functional; conditions: not given

| Structure (SMILES) | Activity [%] |
| --- | --- |
| Br.CN1C(=O)CN(CCCCCN2CCCCC2)c2ccc([N+](=O)[O-])cc21 | 79.12 |
| CC1CS(=O)(=O)CCN1/N=C/c1ccc([N+](=O)[O-])o1 (stereo not drawn) [NIFURTIMOX] | 98.73 |

tested on: Trypanosoma cruzi; assay: Trypanocidal activity against epimastigote stage of Trypanosoma cruzi CL Brener at 10 ug/mL after 72 hrs by beta-galactosidase reporter gene assay relative to control; format: functional; conditions: not given

| Structure (SMILES) | Activity [%] |
| --- | --- |
| Br.CN1C(=O)CN(CCCCCN2CCCCC2)c2ccc([N+](=O)[O-])cc21 | 60.68 |
| CC1CS(=O)(=O)CCN1/N=C/c1ccc([N+](=O)[O-])o1 (stereo not drawn) [NIFURTIMOX] | 90 |

tested on: Trichomonas vaginalis; assay: Trichomonacidal activity against Trichomonas vaginalis JH31A at 10 ug/ml after 24 hrs by Neubauer chamber analysis relative to control; format: functional; conditions: not given

| Structure (SMILES) | Activity [%] |
| --- | --- |
| Br.CN1C(=O)CN(CCCCCN2CCCCC2)c2ccc([N+](=O)[O-])cc21 | 92.63 |

tested on: Toxoplasma gondii; assay: Antiprotozoal activity against tachyzoite stage of Toxoplasma gondii RH assessed as viability at 100 uM after 4 hrs by trypan blue exclusion assay relative to control; format: functional; conditions: not given

| Structure (SMILES) | Activity [%] |
| --- | --- |
| Br.CN1C(=O)CN(CCCCCN2CCCCC2)c2ccc([N+](=O)[O-])cc21 | 96 |

tested on: Trypanosoma cruzi; assay: Trypanocidal activity against epimastigote stage of Trypanosoma cruzi CL Brener at 1 ug/mL after 72 hrs by beta-galactosidase reporter gene assay relative to control; format: functional; conditions: not given

| Structure (SMILES) | Activity [%] |
| --- | --- |
| Br.CN1C(=O)CN(CCCCCN2CCCCC2)c2ccc([N+](=O)[O-])cc21 | 7.93 |
| CC1CS(=O)(=O)CCN1/N=C/c1ccc([N+](=O)[O-])o1 (stereo not drawn) [NIFURTIMOX] | 75.5 |

tested on: Trichomonas vaginalis; assay: Trichomonacidal activity against Trichomonas vaginalis JH31A at 100 ug/ml after 24 hrs by Neubauer chamber analysis relative to control; format: functional; conditions: not given

| Structure (SMILES) | Activity [%] |
| --- | --- |
| Br.CN1C(=O)CN(CCCCCN2CCCCC2)c2ccc([N+](=O)[O-])cc21 | 100 |

tested on: Trichomonas vaginalis; assay: Trichomonacidal activity against Trichomonas vaginalis JH31A at 2 ug/ml after 48 hrs by Neubauer chamber analysis relative to control; format: functional; conditions: not given

| Structure (SMILES) | Activity [%] |
| --- | --- |
| Cc1ncc([N+](=O)[O-])n1CCO [METRONIDAZOLE] | 100 |

tested on: Toxoplasma gondii; assay: Antiprotozoal activity against tachyzoite stage of Toxoplasma gondii RH assessed as viability at 1 mM after 4 hrs by trypan blue exclusion assay relative to control; format: functional; conditions: not given

| Structure (SMILES) | Activity [%] |
| --- | --- |
| Br.CN1C(=O)CN(CCCCCN2CCCCC2)c2ccc([N+](=O)[O-])cc21 | 36 |

tested on: J774; assay: Cytotoxicity against mouse J774 cells at 100 ug/mL after 24 hrs by MTT assay; format: cell-based; conditions: j774, 24 h

| Structure (SMILES) | Activity [%] |
| --- | --- |
| Br.CN1C(=O)CN(CCCCCN2CCCCC2)c2ccc([N+](=O)[O-])cc21 | 61.38 |
| CC1CS(=O)(=O)CCN1/N=C/c1ccc([N+](=O)[O-])o1 (stereo not drawn) [NIFURTIMOX] | 25.9 |

tested on: Trichomonas vaginalis; assay: Trichomonacidal activity against Trichomonas vaginalis JH31A at 100 ug/ml after 48 hrs by Neubauer chamber analysis relative to control; format: functional; conditions: not given

| Structure (SMILES) | Activity [%] |
| --- | --- |
| Br.CN1C(=O)CN(CCCCCN2CCCCC2)c2ccc([N+](=O)[O-])cc21 | 100 |
